{"source": "patent US11096923B2", "about": "“Pharmaceutical composition containing polymyxin B/trimethoprim based therapeutics” (University of Rochester, priority 2016, dated 2021)", "key": {"P. aeruginosa PAO1": {"test_system": "P. aeruginosa PAO1", "test": "Selleck library screen in presence of sub-inhibitory polymyxin B/trimethoprim", "format": "cell-based, Pseudomonas aeruginosa", "set-up": "key: Growth (+); no growth (−)", "protocol": "(§1) To identify agents that potentiate the antimicrobial activity of polymyxin B/trimethoprim we first determined the highest concentration of the polymyxin B/trimethoprim combination that allowed growth of P. aeruginosa strain PAO1 and S. aureus strain UAMS-1.\nFor Selleck library screening, individual wells of 96-well microtiter plates containing 88 μl of fresh media were inoculated with approximately 10^5 CFUs of P. aeruginosa strain PAO1 or S. aureus UAMS-1. Next, 2 μl of polymyxin B/trimethoprim was added to a final concentration of 0.2 μg ml^−1 or 1.25 μg ml^−1 for PA01 and UAMS-1, respectively. Library members were then added at either 5 μM or 50 μM final concentration. Plates were incubated at 37° C. for 16 hours and hits were identified as wells with no visible growth. […]"}, "P. aeruginosa": {"test_system": "P. aeruginosa", "test": "Fractional inhibitory concentration, checkerboard MIC", "format": "cell-based, Pseudomonas aeruginosa", "conditions": "for MIC in combination: PT combined with rifampicin; for MIC: Pseudomonas aeruginosa"}, "S. aureus": {"test_system": "S. aureus", "test": "Fractional inhibitory concentration, checkerboard MIC", "format": "cell-based, Staphylococcus aureus", "conditions": "for MIC in combination: PT combined with rifampicin; for MIC: Staphylococcus aureus"}, "[1]": {"test_system": "S. aureus UAMS-1 biofilms", "test": "Biofilm susceptibility", "format": "cell-based, Staphylococcus aureus", "conditions": "established S. aureus biofilm, 24 hrs treatment, 32×MIC", "excerpt": "Bacterial strains used in these studies include the conventional laboratory strains Pseudomonas aeruginosa PA01 and Staphylococcus aureus UAMS-1, both of which are antibiotic susceptible and capable of forming robust biofilms. See […], Thomas J R, Nelson […]. Role of the accessory gene regulator (agr) in pathogenesis of staphylococcal osteomyelitis. Infection and immunity 1995; 63:3373-3380. Seven clinical keratitis isolates of Pseudomonas aeruginosa, were collected from the Flaum Eye Institute, Rochester N.Y. and 25 clinical isolates of Staphylococcus aureus from geographically distinct regions of the country where purchased from International Health Management Associates (IHMA; Schaumburg, Ill.). For experiments requiring planktonic cultures, the indicated organism was grown overnight in Luria-Bertani broth (LB; […] Biofilms were established by inoculating individual wells of flat-bottom polystyrene plates (Falcon, Corning Life Sciences; Durham, N.C.) with overnight cultures of the indicated organism into 200 ul of fresh LB to a final concentration of 1×10^7 CFU ml^-1. Plates were placed in a 37° C.-humidified incubator for 72 hours to allow static biofilm formation. Non-adherent cells were aspirated and biofilms were washed twice with phosphate-buffered saline prior to each experiment. […] After 24 hrs the remaining media and non-adherent cells were removed, biofilms were suspended in 0.8% NaCl and plated to quantify surviving bacteria. […] Biofilms were treated in increasing increments ranging from 0 to 64×MIC."}, "[2]": {"test_system": "planktonic P. aeruginosa cells", "test": "Antimicrobial kill curves", "format": "cell-based, Pseudomonas aeruginosa", "conditions": "2× MIC, 4 hours post-treatment", "protocol": "Overnight cultures of the indicated organism were used to inoculate (1:100 dilution) 100 ml of fresh media and grown to mid-exponential phase. […] Aliquots were taken at 1, 2, 3, 4, and 24 hours, serial diluted and plated for colony forming units."}, "S. aureus UAMS-1": {"test_system": "S. aureus UAMS-1", "test": "Selleck library screen in presence of sub-inhibitory polymyxin B/trimethoprim", "format": "cell-based, Staphylococcus aureus", "set-up": "key: Growth (+); no growth (−)", "protocol": "as §1\nFor Selleck library screening, individual wells of 96-well microtiter plates containing 88 μl of fresh media were inoculated with approximately 10^5 CFUs of P. aeruginosa strain PAO1 or S. aureus UAMS-1. Next, 2 μl of polymyxin B/trimethoprim was added to a final concentration of 0.2 μg ml^−1 or 1.25 μg ml^−1 for PA01 and UAMS-1, respectively. Library members were then added at either 5 μM or 50 μM final concentration. Plates were incubated at 37° C. for 16 hours and hits were identified as wells with no visible growth.\nTo do so, 10^5 CFUs of S. aureus strain UAMS-1 were inoculated in individual wells of a microtiter plate supplemented with 1.2 μg ml^−1 of polymyxin B/trimethoprim, (0.25×MIC). Library members were added at low (5 μM) or high (50 μM) concentrations and then scored for agents that inhibited growth following overnight incubation. Such agents were expected to represent compounds that display antimicrobial activity on their own and/or that potentiate the antimicrobial activity of polymyxin B/trimethoprim."}}}
{"smiles": "CO[C@H]1/C=C/O[C@@]2(C)Oc3c(C)c(O)c4c(O)c(c(/C=N/N5CCN(C)CC5)c(O)c4c3C2=O)NC(=O)/C(C)=C\\C=C\\[C@H](C)[C@H](O)[C@@H](C)[C@@H](O)[C@@H](C)[C@H](OC(C)=O)[C@@H]1C", "note": "[Rifampicin, rifampicin]", "values": [{"measurement": "P. aeruginosa growth, 5 μM", "setting": "P. aeruginosa PAO1; drug 5 μM in presence of 0.2 μg ml^−1 polymyxin B/trimethoprim", "result": "−"}, {"measurement": "P. aeruginosa growth, 50 μM", "setting": "P. aeruginosa PAO1; drug 50 μM in presence of 0.2 μg ml^−1 polymyxin B/trimethoprim", "result": "−"}, {"measurement": "MIC in combination", "setting": "P. aeruginosa; P. aeruginosa PAO1", "result": 1.9, "unit": "µg/mL"}, {"measurement": "MIC in combination", "setting": "P. aeruginosa; P. aeruginosa RW01", "result": 1.9, "unit": "µg/mL"}, {"measurement": "MIC in combination", "setting": "P. aeruginosa; P. aeruginosa RW02", "result": 1.9, "unit": "µg/mL"}, {"measurement": "MIC in combination", "setting": "P. aeruginosa; P. aeruginosa RW03", "result": 3.9, "unit": "µg/mL"}, {"measurement": "MIC in combination", "setting": "P. aeruginosa; P. aeruginosa RW04", "result": 1.9, "unit": "µg/mL"}, {"measurement": "MIC in combination", "setting": "P. aeruginosa; P. aeruginosa RW05", "result": 1.9, "unit": "µg/mL"}, {"measurement": "MIC in combination", "setting": "P. aeruginosa; P. aeruginosa RW06", "result": 1.9, "unit": "µg/mL"}, {"measurement": "MIC in combination", "setting": "P. aeruginosa; P. aeruginosa RW07", "result": 1.9, "unit": "µg/mL"}, {"measurement": "MIC", "setting": "P. aeruginosa; P. aeruginosa RW01", "result": 15.6, "unit": "µg/mL"}, {"measurement": "MIC", "setting": "P. aeruginosa; P. aeruginosa RW02", "result": 15.6, "unit": "µg/mL"}, {"measurement": "MIC", "setting": "P. aeruginosa; P. aeruginosa RW03", "result": 15.6, "unit": "µg/mL"}, {"measurement": "MIC", "setting": "P. aeruginosa; P. aeruginosa RW04", "result": 15.6, "unit": "µg/mL"}, {"measurement": "MIC", "setting": "P. aeruginosa; P. aeruginosa RW05", "result": 31.2, "unit": "µg/mL"}, {"measurement": "MIC", "setting": "P. aeruginosa; P. aeruginosa RW06", "result": 15.6, "unit": "µg/mL"}, {"measurement": "MIC", "setting": "P. aeruginosa; P. aeruginosa RW07", "result": 15.6, "unit": "µg/mL"}, {"measurement": "MIC", "setting": "P. aeruginosa; PAO1, P. aeruginosa PAO1", "result": 15.6, "unit": "µg/mL"}, {"measurement": "MIC in combination", "setting": "S. aureus; S. aureus 1071788", "result": 0.0015, "unit": "µg/mL"}, {"measurement": "MIC in combination", "setting": "S. aureus; S. aureus 1094094", "result": 0.0015, "unit": "µg/mL"}, {"measurement": "MIC in combination", "setting": "S. aureus; S. aureus 1094140", "result": 0.0015, "unit": "µg/mL"}, {"measurement": "MIC in combination", "setting": "S. aureus; S. aureus 1094147", "result": 0.0015, "unit": "µg/mL"}, {"measurement": "MIC in combination", "setting": "S. aureus; S. aureus 1094166", "result": 0.0015, "unit": "µg/mL"}, {"measurement": "MIC in combination", "setting": "S. aureus; S. aureus 1094178", "result": 0.0076, "unit": "µg/mL"}, {"measurement": "MIC in combination", "setting": "S. aureus; S. aureus 1097612", "result": 0.0035, "unit": "µg/mL"}, {"measurement": "MIC in combination", "setting": "S. aureus; S. aureus 1097630", "result": 0.0015, "unit": "µg/mL"}, {"measurement": "MIC in combination", "setting": "S. aureus; S. aureus 1101442", "result": 0.0035, "unit": "µg/mL"}, {"measurement": "MIC in combination", "setting": "S. aureus; S. aureus 1103430", "result": 0.0015, "unit": "µg/mL"}, {"measurement": "MIC in combination", "setting": "S. aureus; S. aureus 1110936", "result": 0.0035, "unit": "µg/mL"}, {"measurement": "MIC in combination", "setting": "S. aureus; S. aureus 1111063", "result": 0.0076, "unit": "µg/mL"}, {"measurement": "MIC in combination", "setting": "S. aureus; S. aureus 1122181", "result": 0.0015, "unit": "µg/mL"}, {"measurement": "MIC in combination", "setting": "S. aureus; S. aureus 1122187", "result": 0.0035, "unit": "µg/mL"}, {"measurement": "MIC in combination", "setting": "S. aureus; S. aureus 1122190", "result": 0.0035, "unit": "µg/mL"}, {"measurement": "MIC in combination", "setting": "S. aureus; S. aureus 1122197", "result": 0.0015, "unit": "µg/mL"}, {"measurement": "MIC in combination", "setting": "S. aureus; S. aureus 1125120", "result": 0.0076, "unit": "µg/mL"}, {"measurement": "MIC in combination", "setting": "S. aureus; S. aureus 1132822", "result": 0.0015, "unit": "µg/mL"}, {"measurement": "MIC in combination", "setting": "S. aureus; S. aureus 1142776", "result": 0.0015, "unit": "µg/mL"}, {"measurement": "MIC in combination", "setting": "S. aureus; S. aureus 1144105", "result": 0.0035, "unit": "µg/mL"}, {"measurement": "MIC in combination", "setting": "S. aureus; S. aureus UAMS-1", "result": 0.0015, "unit": "µg/mL"}, {"measurement": "MIC", "setting": "S. aureus; S. aureus 1071788", "result": 0.01, "unit": "µg/mL"}, {"measurement": "MIC", "setting": "S. aureus; S. aureus 1094094", "result": 0.01, "unit": "µg/mL"}, {"measurement": "MIC", "setting": "S. aureus; S. aureus 1094140", "result": 0.01, "unit": "µg/mL"}, {"measurement": "MIC", "setting": "S. aureus; S. aureus 1094147", "result": 0.01, "unit": "µg/mL"}, {"measurement": "MIC", "setting": "S. aureus; S. aureus 1094166", "result": 0.01, "unit": "µg/mL"}, {"measurement": "MIC", "setting": "S. aureus; S. aureus 1094178", "result": 0.1, "unit": "µg/mL"}, {"measurement": "MIC", "setting": "S. aureus; S. aureus 1097612", "result": 0.05, "unit": "µg/mL"}, {"measurement": "MIC", "setting": "S. aureus; S. aureus 1097630", "result": 0.01, "unit": "µg/mL"}, {"measurement": "MIC", "setting": "S. aureus; S. aureus 1101442", "result": 0.05, "unit": "µg/mL"}, {"measurement": "MIC", "setting": "S. aureus; S. aureus 1103430", "result": 0.01, "unit": "µg/mL"}, {"measurement": "MIC", "setting": "S. aureus; S. aureus 1110936", "result": 0.05, "unit": "µg/mL"}, {"measurement": "MIC", "setting": "S. aureus; S. aureus 1111063", "result": 0.1, "unit": "µg/mL"}, {"measurement": "MIC", "setting": "S. aureus; S. aureus 1122181", "result": 0.01, "unit": "µg/mL"}, {"measurement": "MIC", "setting": "S. aureus; S. aureus 1122187", "result": 0.05, "unit": "µg/mL"}, {"measurement": "MIC", "setting": "S. aureus; S. aureus 1122190", "result": 0.05, "unit": "µg/mL"}, {"measurement": "MIC", "setting": "S. aureus; S. aureus 1122197", "result": 0.01, "unit": "µg/mL"}, {"measurement": "MIC", "setting": "S. aureus; S. aureus 1125120", "result": 0.05, "unit": "µg/mL"}, {"measurement": "MIC", "setting": "S. aureus; S. aureus 1132822", "result": 0.01, "unit": "µg/mL"}, {"measurement": "MIC", "setting": "S. aureus; S. aureus 1142776", "result": 0.01, "unit": "µg/mL"}, {"measurement": "MIC", "setting": "S. aureus; S. aureus 1144105", "result": 0.05, "unit": "µg/mL"}, {"measurement": "MIC", "setting": "S. aureus; S. aureus UAMS-1", "result": 0.01, "unit": "µg/mL"}, {"measurement": "reduction in biofilm-associated CFU", "setting": "[1]", "result": 4, "unit": "log"}, {"measurement": "reduction in CFU at hour 4", "setting": "[2]", "result": 6, "unit": "log"}, {"measurement": "S. aureus growth, 5 μM", "setting": "S. aureus UAMS-1; drug 5 μM in presence of 1.2 μg ml^−1 polymyxin B/trimethoprim", "result": "−"}, {"measurement": "S. aureus growth, 50 μM", "setting": "S. aureus UAMS-1; drug 50 μM in presence of 1.2 μg ml^−1 polymyxin B/trimethoprim", "result": "−"}]}
